Assay: Phase 1 multiple escalating intravenous dose safety and pharmacokinetics, QD for 14 days (Example 7)
Assay type: in vivo, human
Conditions: for median Cmax: predicted 14-day profile; for AUCτ/Dose / Cmax / Cmax/Dose: secondary predicted parameter; for Gamma: terminal elimination rate constant
Description: The present study was designed to evaluate the pharmacokinetics of zotarolimus following multiple dosing and to assess its safety while maximizing systemic exposure of healthy subjects. […] The study investigated pharmacokinetics and safety of zotarolimus in a Phase 1, multiple dose-escalation study following multiple intravenous infusions of 200, 400 and 800 μg doses, every day for fourteen consecutive days in healthy subjects.
Phase 1, multiple-escalating dose, double-blind, placebo-controlled, randomized study. Seventy-two subjects equally divided in 3 once-daily (QD) regimens (200, 400 or 800 μg QD with 16 active and 8 placebo per regimen) were administered a 60-minute QD IV infusion of zotarolimus for 14 consecutive days. Blood samples were collected over 24 hours following the first dose, before dosing on days 10, 11, 12, 13, and for 168 hours following Day 14 dose. Urine samples were collected over 24 hours on days 1, 14, 16, 18 and 20. Blood and urine zotarolimus concentrations were determined using a validated LC/MS/MS method. Pharmacokinetic parameters were determined by compartmental analysis. All Day-AUC0-∞ (area under blood concentration-time curve from time 0 to infinity including all 14 doses) was calculated. Dose and time-linearity and achievement of steady-state were evaluated. Fraction of drug eliminated in urine was determined.
Within each group, subjects were equally divided at the two study sites with each site enrolling 12 subjects (zotarolimus, eight subjects; placebo four subjects). The dosing scheme within each dose group is presented below:
Subjects received, under fasting conditions, a single 60-minute daily (QD) intravenous infusion of 200, 400, or 800 μg of zotarolimus or a matching intravenous infusion of placebo for Groups I, II and III, respectively on Study Days 1 through 14. The drug was administered via a syringe pump connected to a y-site device, which also infused 125-150 mL of 5% aqueous dextrose solution (D5W) over 60 minutes. The groups were dosed sequentially with at least 7 days separating the last dose of the previous group and the first dose of the next group during which time safety data from the previous group was analyzed. Dose escalation was dependent on the safety analysis of the lower dose group.
Five (5)-mL blood samples were collected in potassium EDTA containing tubes to evaluate zotarolimus concentrations prior to dosing (0 hour), and at 0.25, 0.5, 1.0, 1 hour 5 min, 1.25, 1.5, 2, 3, 4, 8, 12, 18 and 24 hours after starting infusion on Study Days 1 and 14. Additional samples were collected at 36, 48, 72, 96, 120, 144 and 168 hours after starting infusion on Study Day 14 and before dosing on Days 10, 11, 12 and 13. Urine was collected in containers without preservatives over the following intervals: 0 to 6, 6 to 12, 12 to 18 and 18 to 24 hours after starting the infusion on Study Days 1, 14, 16, 18 and 20.
Blood and urine concentrations of zotarolimus were determined using a validated liquid/liquid extraction HPLC tandem mass spectrometric method (LC-MS/MS). The lower limit of quantification of zotarolimus was 0.20 ng/mL using 0.3 mL blood sample and 0.50 ng/mL using 0.3 mL urine sample.
Safety was evaluated based on adverse event, physical examination, vital signs, ECG, injection site and laboratory tests assessments
The pharmacokinetic parameter values of zotarolimus were estimated for individual subjects using compartmental analysis. Data from the first dose on Study Day 1, the last dose on Study Day 14 and the trough concentrations on Study Days 10, 11, 12 and 13 were simultaneously modeled for each individual subject. […]

Compound: CO[C@H]1C[C@@H]2CC[C@@H](C)[C@@](O)(O2)C(=O)C(=O)N2CCCC[C@H]2C(=O)O[C@H]([C@H](C)C[C@@H]2CC[C@H](n3cnnn3)[C@H](OC)C2)CC(=O)[C@H](C)/C=C(\C)[C@@H](O)[C@@H](OC)C(=O)[C@H](C)C[C@H](C)/C=C/C=C/C=C/1C [zotarolimus]
- V1 (200 μg QD IV infusion 14 days, compartmental, mean ± SD): 11.4 ± 1.7 L
- median Cmax (200 μg QD): 11.4 ng/mL
- AUCτ/Dose (200 μg QD, mean ± SD): 0.245 ± 0.031 ng·h/mL/µg
- Cmax (200 μg QD, mean ± SD): 11.2 ± 1.1 ng/mL
- Cmax/Dose (200 μg QD, mean ± SD): 0.056 ± 0.006 ng/mL/µg
- Gamma (200 μg QD, mean ± SD): 0.028 ± 0.005 h − 1
- V1 (400 μg QD IV infusion 14 days, compartmental, mean ± SD): 11.3 ± 1.0 L
- median Cmax (400 μg QD): 22.1 ng/mL
- AUCτ/Dose (400 μg QD, mean ± SD): 0.260 ± 0.047 ng·h/mL/µg
- Cmax (400 μg QD, mean ± SD): 21.4 ± 2.4 ng/mL
- Cmax/Dose (400 μg QD, mean ± SD): 0.053 ± 0.006 ng/mL/µg
- Gamma (400 μg QD, mean ± SD): 0.022 ± 0.003 h − 1
- V1 (800 μg QD IV infusion 14 days, compartmental, mean ± SD): 13.1 ± 3.2 L
- fraction of the dose recovered in the urine as unchanged drug (800 μg QD dose group, 24-hour period on Day 1 and Day 14): approximately 0.1%
- median Cmax (800 μg QD): 38.9 ng/mL
- AUCτ/Dose (800 μg QD, mean ± SD): 0.224 ± 0.022 ng·h/mL/µg
- Cmax (800 μg QD, mean ± SD): 38.7 ± 6.3 ng/mL
- Cmax/Dose (800 μg QD, mean ± SD): 0.048 ± 0.008 ng/mL/µg
- Gamma (800 μg QD, mean ± SD): 0.023 ± 0.003 h − 1
- evidence of immunosuppression, QTc prolongation or clinically significant adverse events (200-800 μg QD for 14 days): no subject displayed any clinical or biochemical evidence of immunosuppression, QTc prolongation or clinically significant adverse events
- most common treatment-emergent adverse events (200-800 μg QD for 14 days): pain, headache, injection site reaction, dry skin, abdominal pain, diarrhea and rash
- serious adverse events (200-800 μg QD for 14 days): no serious adverse events
- dose proportionality and time dependence of pharmacokinetics (IV for 14 consecutive days, 200-800 μg QD): dose proportional and time invariant
- Steady state for QD dosing reached (QD IV dosing, first trough samples on Day 10): ≤ 10 days
- tolerability (multiple doses of 200, 400, and 800 μg for 14 consecutive days): generally well tolerated
- V1 (range of means over the studied regimens 200-800 μg QD): 11.3 to 13.1 L
- zotarolimus dose recovered in the urine (within a 24-hour period post-dose, on average): 0.1%

From patent US20090162413A1 (priority 1998, published 2009)
